Laboratory results as given in patent US10407430B2, “Janus kinase 1 selective inhibitor and pharmaceutical use thereof” (YANG JI CHEMICAL CO., LTD., priority 2015, dated 2019).
pIC50: −log10 of the molar value.

Key:
Type in all cases: biochemical
Human JAK2 = target: T1, Human JAK2 (Homo sapiens, UniProt O60674); assay: In-vitro kinase inhibition test, JAK2; conditions: for inhibition at 1 µM: compound at 1 uM, read-out: JAK2 kinase-phosphorylation inhibitory level (% inhibition)
T1 construct: purchased Millipore, Germany
T1 sequence (O60674 whole entry): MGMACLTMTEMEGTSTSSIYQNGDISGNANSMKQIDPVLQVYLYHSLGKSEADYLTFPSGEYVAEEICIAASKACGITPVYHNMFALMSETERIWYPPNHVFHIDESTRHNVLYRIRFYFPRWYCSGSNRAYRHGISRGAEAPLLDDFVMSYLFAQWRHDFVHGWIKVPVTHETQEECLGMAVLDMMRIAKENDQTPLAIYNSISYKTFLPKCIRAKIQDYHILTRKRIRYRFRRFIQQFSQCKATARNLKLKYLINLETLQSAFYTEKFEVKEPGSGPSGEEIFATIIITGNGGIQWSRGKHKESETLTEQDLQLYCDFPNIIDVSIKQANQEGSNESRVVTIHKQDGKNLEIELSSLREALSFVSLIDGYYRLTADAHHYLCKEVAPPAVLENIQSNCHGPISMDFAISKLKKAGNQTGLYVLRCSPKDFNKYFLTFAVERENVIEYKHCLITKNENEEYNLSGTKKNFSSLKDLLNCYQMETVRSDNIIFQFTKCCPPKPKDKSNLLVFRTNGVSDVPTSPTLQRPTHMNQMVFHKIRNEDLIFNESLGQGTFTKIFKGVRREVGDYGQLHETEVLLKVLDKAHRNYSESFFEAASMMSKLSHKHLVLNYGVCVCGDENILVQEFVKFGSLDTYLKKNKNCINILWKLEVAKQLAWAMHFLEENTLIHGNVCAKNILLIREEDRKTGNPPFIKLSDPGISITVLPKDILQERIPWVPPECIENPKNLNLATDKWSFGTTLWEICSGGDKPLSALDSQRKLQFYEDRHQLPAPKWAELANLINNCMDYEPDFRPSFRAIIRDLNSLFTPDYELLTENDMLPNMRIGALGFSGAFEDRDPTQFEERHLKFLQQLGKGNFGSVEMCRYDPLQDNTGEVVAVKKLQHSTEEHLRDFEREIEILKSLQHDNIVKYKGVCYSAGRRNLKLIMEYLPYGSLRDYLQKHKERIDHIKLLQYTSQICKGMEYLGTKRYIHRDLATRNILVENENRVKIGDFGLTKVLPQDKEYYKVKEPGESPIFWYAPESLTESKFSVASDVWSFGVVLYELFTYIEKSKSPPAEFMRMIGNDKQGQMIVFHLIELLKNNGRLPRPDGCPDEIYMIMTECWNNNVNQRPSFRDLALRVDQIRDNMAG
Experimental: (§1) Human-derived JAK1, JAK2, JAK3 and TYK2 (Millipore, Germany) were used as kinases. Each kinase was diluted with an appropriate buffer as described below, and then mixed with reaction reagents.
(§2) 3-morpholinopropane-1-sulfonic acid (MOPS) and EDTA were dissolved in deionized water at a concentration of 20 mM and 1 mM, respectively, and then 100 μL of β-mercaptoethanol, 10 μL of Brij-35™, 5 mL of glycerol, and 100 mg of bovine serum albumin (BSA), each per 100 mL of the solution, were added to the solution, thereby preparing a dilution buffer for JAK2, JAK3, and TYK2.
(§3) Each compound was dissolved in a 100%-DMSO solution at a concentration of about 50 μM. This prepared solution was reacted with reaction reagents in each well of a 96-well plate until a final concentration of the compound reached 1 μM. A detailed experimental method for each kinase is as follows.
(§4) After reaction for about 40 minutes at room temperature, the reaction was stopped by adding 5 uL of a 3% (v/v) phosphoric acid solution.
(§5) The inhibitory levels (% inhibition) represent a percentage of reduction in phosphorylation activity in each test group with respect to the phosphorylation activity of a corresponding kinase in a negative control group lacking any of the compounds synthesized in the examples. % inhibition=[(Scintillation value of Test compound non-treatment group−Scintillation value of Test compound treatment group)/(Scintillation value of Test compound non-treatment group)]×100

Human TYK2 = target: T2, Human TYK2 (Homo sapiens, UniProt P29597); assay: In-vitro kinase inhibition test, TYK2; conditions: for inhibition at 1 µM: compound at 1 uM, read-out: TYK2 kinase-phosphorylation inhibitory level (% inhibition)
T2 construct: purchased Millipore, Germany
T2 sequence (P29597 whole entry): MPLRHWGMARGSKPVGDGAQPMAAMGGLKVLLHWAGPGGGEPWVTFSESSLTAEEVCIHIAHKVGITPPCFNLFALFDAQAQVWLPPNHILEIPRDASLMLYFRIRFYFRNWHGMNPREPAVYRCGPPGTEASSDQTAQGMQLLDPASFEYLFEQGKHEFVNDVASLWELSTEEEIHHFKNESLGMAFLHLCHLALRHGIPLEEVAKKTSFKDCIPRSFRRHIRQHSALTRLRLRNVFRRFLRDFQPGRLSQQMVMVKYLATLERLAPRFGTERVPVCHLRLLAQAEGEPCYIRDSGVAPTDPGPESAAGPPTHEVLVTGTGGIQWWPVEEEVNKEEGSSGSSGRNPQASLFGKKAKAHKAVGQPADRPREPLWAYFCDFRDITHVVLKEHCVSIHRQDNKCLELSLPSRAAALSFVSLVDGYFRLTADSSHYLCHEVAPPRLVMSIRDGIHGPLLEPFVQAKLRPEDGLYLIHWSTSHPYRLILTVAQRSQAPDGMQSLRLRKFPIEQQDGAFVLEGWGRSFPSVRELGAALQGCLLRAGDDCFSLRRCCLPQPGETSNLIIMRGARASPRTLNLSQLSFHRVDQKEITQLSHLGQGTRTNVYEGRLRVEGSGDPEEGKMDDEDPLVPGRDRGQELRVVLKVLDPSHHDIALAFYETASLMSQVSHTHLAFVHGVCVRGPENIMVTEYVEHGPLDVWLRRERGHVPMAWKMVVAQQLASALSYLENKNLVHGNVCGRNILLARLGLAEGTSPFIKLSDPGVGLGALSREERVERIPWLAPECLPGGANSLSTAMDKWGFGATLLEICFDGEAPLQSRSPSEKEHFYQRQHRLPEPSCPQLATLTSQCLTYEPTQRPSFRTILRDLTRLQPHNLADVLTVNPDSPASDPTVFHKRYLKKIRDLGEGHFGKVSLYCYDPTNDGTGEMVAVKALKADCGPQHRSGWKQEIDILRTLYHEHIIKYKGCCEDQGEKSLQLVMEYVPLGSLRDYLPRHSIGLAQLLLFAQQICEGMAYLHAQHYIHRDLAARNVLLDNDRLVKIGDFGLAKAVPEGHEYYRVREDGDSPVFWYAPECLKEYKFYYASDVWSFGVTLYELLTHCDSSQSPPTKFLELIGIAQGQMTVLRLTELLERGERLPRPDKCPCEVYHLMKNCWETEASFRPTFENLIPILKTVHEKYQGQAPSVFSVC
Experimental: as §1, §2, §3, §4, §5

Human JAK1 = target: T3, Human JAK1 (Homo sapiens, UniProt P23458); assay: In-vitro kinase inhibition test, JAK1; conditions: for inhibition at 1 µM: compound at 1 uM, read-out: JAK1 kinase-phosphorylation inhibitory level (% inhibition); for JAK1/JAK2: ratio of % inhibition of JAK1 to JAK2 at 1 uM
T3 construct: purchased Millipore, Germany
T3 sequence (P23458 whole entry): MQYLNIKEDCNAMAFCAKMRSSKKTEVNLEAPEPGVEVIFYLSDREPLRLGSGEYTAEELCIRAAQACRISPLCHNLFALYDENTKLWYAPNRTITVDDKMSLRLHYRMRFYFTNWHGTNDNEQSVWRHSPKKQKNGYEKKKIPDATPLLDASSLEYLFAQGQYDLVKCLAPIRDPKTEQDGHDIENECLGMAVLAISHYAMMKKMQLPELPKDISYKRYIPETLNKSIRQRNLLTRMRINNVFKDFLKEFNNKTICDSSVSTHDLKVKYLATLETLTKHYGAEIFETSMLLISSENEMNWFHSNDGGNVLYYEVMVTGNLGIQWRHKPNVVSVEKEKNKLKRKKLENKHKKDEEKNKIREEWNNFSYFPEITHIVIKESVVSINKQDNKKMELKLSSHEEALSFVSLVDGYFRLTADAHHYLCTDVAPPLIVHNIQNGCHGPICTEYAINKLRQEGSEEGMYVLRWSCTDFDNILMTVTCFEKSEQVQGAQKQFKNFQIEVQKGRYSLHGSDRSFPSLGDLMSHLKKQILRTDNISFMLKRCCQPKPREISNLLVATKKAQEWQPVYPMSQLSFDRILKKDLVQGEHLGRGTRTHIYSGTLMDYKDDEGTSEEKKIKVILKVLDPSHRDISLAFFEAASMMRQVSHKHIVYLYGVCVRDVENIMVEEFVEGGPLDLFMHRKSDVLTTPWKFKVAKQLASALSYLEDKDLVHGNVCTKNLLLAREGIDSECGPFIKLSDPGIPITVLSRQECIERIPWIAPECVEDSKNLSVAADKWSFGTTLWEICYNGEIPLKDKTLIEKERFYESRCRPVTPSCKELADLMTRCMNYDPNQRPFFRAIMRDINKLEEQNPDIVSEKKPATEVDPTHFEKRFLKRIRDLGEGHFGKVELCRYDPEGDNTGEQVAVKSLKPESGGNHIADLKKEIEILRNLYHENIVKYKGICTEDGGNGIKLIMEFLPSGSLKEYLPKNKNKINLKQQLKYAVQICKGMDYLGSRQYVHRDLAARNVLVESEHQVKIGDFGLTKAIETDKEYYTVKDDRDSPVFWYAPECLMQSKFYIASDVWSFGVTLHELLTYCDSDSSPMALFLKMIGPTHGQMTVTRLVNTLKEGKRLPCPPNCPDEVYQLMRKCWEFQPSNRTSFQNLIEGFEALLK

Human JAK3 = target: T4, Human JAK3 (Homo sapiens, UniProt P52333); assay: In-vitro kinase inhibition test, JAK3; conditions: for inhibition at 1 µM: compound at 1 uM, read-out: JAK3 kinase-phosphorylation inhibitory level (% inhibition)
T4 construct: purchased Millipore, Germany
T4 sequence (P52333 1-1124): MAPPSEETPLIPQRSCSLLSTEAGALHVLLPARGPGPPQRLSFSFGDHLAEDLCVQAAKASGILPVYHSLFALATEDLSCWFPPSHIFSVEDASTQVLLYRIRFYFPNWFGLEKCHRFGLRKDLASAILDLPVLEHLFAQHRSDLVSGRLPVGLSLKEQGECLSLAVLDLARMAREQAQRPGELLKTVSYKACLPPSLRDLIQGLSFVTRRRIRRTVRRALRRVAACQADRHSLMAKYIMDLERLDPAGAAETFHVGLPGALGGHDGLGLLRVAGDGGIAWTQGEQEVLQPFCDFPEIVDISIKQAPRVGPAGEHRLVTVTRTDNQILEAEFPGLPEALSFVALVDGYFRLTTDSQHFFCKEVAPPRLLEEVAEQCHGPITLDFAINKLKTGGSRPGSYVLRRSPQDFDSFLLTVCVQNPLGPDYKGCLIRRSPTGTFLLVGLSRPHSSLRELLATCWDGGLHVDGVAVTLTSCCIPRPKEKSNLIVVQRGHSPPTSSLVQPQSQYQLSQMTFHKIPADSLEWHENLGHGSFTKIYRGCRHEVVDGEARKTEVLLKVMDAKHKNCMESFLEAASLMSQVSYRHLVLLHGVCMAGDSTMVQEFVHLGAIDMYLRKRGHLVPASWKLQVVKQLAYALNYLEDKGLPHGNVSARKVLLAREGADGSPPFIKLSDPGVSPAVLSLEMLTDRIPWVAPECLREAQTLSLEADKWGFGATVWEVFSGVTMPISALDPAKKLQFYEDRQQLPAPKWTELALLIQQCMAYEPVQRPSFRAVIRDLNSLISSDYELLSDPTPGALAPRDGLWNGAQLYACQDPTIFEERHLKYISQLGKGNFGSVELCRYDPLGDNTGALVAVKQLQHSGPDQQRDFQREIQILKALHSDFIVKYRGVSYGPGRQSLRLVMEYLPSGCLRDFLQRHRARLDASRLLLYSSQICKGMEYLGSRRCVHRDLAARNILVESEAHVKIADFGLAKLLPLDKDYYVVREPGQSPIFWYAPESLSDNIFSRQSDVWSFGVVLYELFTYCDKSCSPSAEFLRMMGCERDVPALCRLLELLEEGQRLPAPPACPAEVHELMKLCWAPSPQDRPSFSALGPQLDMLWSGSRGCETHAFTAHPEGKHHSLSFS

| inhibition at 1 µM (Human JAK2) | inhibition at 1 µM (Human TYK2) | inhibition at 1 µM (Human JAK1) | JAK1/JAK2 (Human JAK1) | inhibition at 1 µM (Human JAK3) | pIC50 (Human JAK2) | pIC50 (Human TYK2) | pIC50 (Human JAK1) | pIC50 (Human JAK3) | SMILES |
| --- | --- | --- | --- | --- | --- | --- | --- | --- | --- |
| 48% | 67% | 93% | 1.94 | 21% | – | – | – | – | CN(c1ncnc2[nH]ccc12)[C@@H]1CCN(S(=O)(=O)c2ccccc2[N+](=O)[O-])C1 [Example 21, (R)—N-methyl-N-(1-((2-nitrophenyl)sulfonyl)pyrrolidine-3-yl)-7H-pyrrolo[2,3-d]pyrimidine-4-amine] |
| 97% | 99% | 100% | 1.03 | 74% | – | – | – | – | CN(c1ncnc2[nH]ccc12)[C@@H]1CCN(S(=O)(=O)c2cccc([N+](=O)[O-])c2)C1 [Example 22, (R)—N-methyl-N-(1-((3-nitrophenyl)sulfonyl)pyrrolidine-3-yl)-7H-pyrrolo[2,3-d]pyrimidine-4-amine] |
| 84% | 94% | 100% | 1.19 | 31% | – | – | – | – | CN(c1ncnc2[nH]ccc12)[C@@H]1CCN(S(=O)(=O)c2ccc([N+](=O)[O-])cc2)C1 [Example 23, (R)—N-methyl-N-(1-((4-nitrophenyl)sulfonyl)pyrrolidine-3-yl)-7H-pyrrolo[2,3-d]pyrimidine-4-amine] |
| 53% | 87% | 95% | 1.79 | 8% | – | – | – | – | Cc1cccc(S(=O)(=O)N2CC[C@@H](N(C)c3ncnc4[nH]ccc34)C2)c1 [Example 24, (R)—N-methyl-N-(1-(m-tolylsulfonyl)pyrrolidine-3-yl)-7H-pyrrolo[2,3-d]pyrimidine-4-amine] |
| 42% | 68% | 97% | 2.31 | 10% | – | – | – | – | Cc1ccc(S(=O)(=O)N2CC[C@@H](N(C)c3ncnc4[nH]ccc34)C2)cc1 [Example 25, (R)—N-methyl-N-(1-tosylpyrrolidine-3-yl)-7H-pyrrolo[2,3-d]pyrimidine-4-amine] |
| 44% | 71% | 98% | 2.23 | 10% | – | – | – | – | COc1ccc(S(=O)(=O)N2CC[C@@H](N(C)c3ncnc4[nH]ccc34)C2)cc1 [Example 26, (R)—N-(1-((4-methoxyphenyl)sulfonyl)pyrrolidine-3-yl)-N-methyl-7H-pyrrolo[2,3-d]pyrimidine-4-amine] |
| 21% | 56% | 96% | 4.57 | 4% | – | – | – | – | CN(c1ncnc2[nH]ccc12)[C@@H]1CCN(S(=O)(=O)c2ccc(C(F)(F)F)cc2)C1 [Example 27, (R)—N-methyl-N-(1-((4-(trifluoromethyl)phenyl)sulfonyl)pyrrolidine-3-yl)-7H-pyrrolo[2,3-d]pyrimidine-4-amine] |
| 57% | 82% | 99% | 1.74 | 23% | – | – | – | – | CN(c1ncnc2[nH]ccc12)[C@@H]1CCN(S(=O)(=O)c2ccc3ccccc3c2)C1 [Example 28, (R)—N-methyl-N-(1-(naphthalene-2-ylsulfonyl)pyrrolidine-3-yl)-7H-pyrrolo[2,3-d]pyrimidine-4-amine] |
| 21% | 65% | 91% | 4.33 | 10% | – | – | – | – | CN(c1ncnc2[nH]ccc12)[C@@H]1CCN(S(=O)(=O)N2CCCCC2)C1 [Example 29, (R)—N-methyl-N-(1-(piperidine-1-ylsulfonyl)pyrrolidine-3-yl)-7H-pyrrolo[2,3-d]pyrimidine-4-amine] |
| 6% | 44% | 87% | 14.50 | 13% | – | – | – | – | CN(c1ncnc2[nH]ccc12)[C@@H]1CCN(S(=O)(=O)N2CCOCC2)C1 [Example 30, (R)—N-methyl-N-(1-(morpholinosulfonyl)pyrrolidine-3-yl)-7H-pyrrolo[2,3-d]pyrimidine-4-amine] |
| 29% | 30% | 67% | 2.31 | 3% | – | – | – | – | N#Cc1cccc(S(=O)(=O)N2CC[C@@H](Nc3ncnc4[nH]ccc34)C2)c1 [Example 32, (R)-3-((3-((7H-pyrrolo[2,3-d]pyrimidine-4-yl)amino)pyrrolidine-1-yl)sulfonyl)benzonitrile] |
| 91% | 94% | 97% | 1.07 | 63% | – | – | – | – | CCN(c1ncnc2[nH]ccc12)[C@@H]1CCN(C(=O)CC#N)C1 [Example 33, (R)-3-(3-(ethyl(7H-pyrrolo[2,3-d]pyrimidine-4-yl)amino)pyrrolidine-1-yl)-3-oxopropanenitrile] |
| 86% | 92% | 97% | 1.13 | 19% | – | – | – | – | CCN(c1ncnc2[nH]ccc12)[C@@H]1CCN(S(=O)(=O)c2cccc(C#N)c2)C1 [Example 34, (R)-3-((3-(ethyl(7H-pyrrolo[2,3-d]pyrimidine-4-yl)amino)pyrrolidine-1-yl)sulfonyl)benzonitrile] |
| 34% | 37% | 88% | 2.59 | 14% | – | – | – | – | N#CCC(=O)N1CC[C@@H](N(CC2CC2)c2ncnc3[nH]ccc23)C1 [Example 35, (R)-3-(3-((cyclopropylmethyl)(7H-pyrrolo[2,3-d]pyrimidine-4-yl)amino)pyrrolidine-1-yl)-3-oxopropanenitrile] |
| 40% | 57% | 87% | 2.18 | 10% | – | – | – | – | N#Cc1cccc(S(=O)(=O)N2CC[C@@H](N(CC3CC3)c3ncnc4[nH]ccc34)C2)c1 [Example 36, (R)-3-((3-((cyclopropylmethyl)(7H-pyrrolo[2,3-d]pyrimidine-4-yl)amino)pyrrolidine-1-yl)sulfonyl)benzonitrile] |
| 1% | -3% | 49% | 49.00 | 8% | – | – | – | – | CN(c1ncnc2[nH]ccc12)C1CCN(C(=O)CC#N)CC1 [Example 37, 3-(4-(methyl(7H-pyrrolo[2,3-d]pyrimidine-4-yl)amino)piperidine-1-yl)-3-oxopropanenitrile] |
| 94% | 97% | 97% | 1.03 | 77% | 7.72 | 7.73 | 8.38 | 6.83 | CN(c1ncnc2[nH]ccc12)C1CCN(S(=O)(=O)c2ccccc2)CC1 [Example 38, N-methyl-N-(1-(phenylsulfonyl)piperidine-4-yl)-7H-pyrrolo[2,3-d]pyrimidine-4-amine] |
| 59% | 69% | 87% | 1.47 | 1% | – | – | – | – | CN(c1ncnc2[nH]ccc12)C1CCN(S(=O)(=O)c2cccc(C#N)c2)CC1 [Example 39, 3-((4-(methyl(7H-pyrrolo[2,3-d]pyrimidine-4-yl)amino)piperidine-1-yl)sulfonyl)benzonitrile] |
| 83% | 93% | 99% | 1.19 | 81% | – | – | – | – | CN(c1ncnc2[nH]ccc12)[C@@H]1CCCN(C(=O)CC#N)C1 [Example 40, (R)-3-(3-(methyl(7H-pyrrolo[2,3-d]pyrimidine-4-yl)amino)piperidine-1-yl)-3-oxopropanenitrile] |
| 64% | 79% | 92% | 1.44 | 39% | – | – | – | – | CN(c1ncnc2[nH]ccc12)[C@@H]1CCCN(S(=O)(=O)c2cccc(C#N)c2)C1 [Example 41, (R)-3-((3-(methyl(7H-pyrrolo[2,3-d]pyrimidine-4-yl)amino)piperidine-1-yl)sulfonyl)benzonitrile] |
